Laboratory results taken from paper PMC9186362, “Design and biological evaluation of substituted 5,7-dihydro-6H-indolo[2,3-c]quinolin-6-one as novel selective Haspin inhibitors” (Journal of Enzyme Inhibition and Medicinal Chemistry, 2022).

Experiments:
Assay in all cases: LanthaScreen Binding - Eu-anti-GST
Conditions in all cases: read-out: Percentage of inhibition
TTK = molecular target: T1, TTK (Homo sapiens, UniProt P33981)
T1 construct: purchased Life Technologies
Description: (§1) We further evaluated the selectivity profile of compound 55 on a larger panel of kinases (SelectScreen Whole Panel, Life Technologies). The inhibition profile of 55, evaluated at 1 μM, is depicted on a dendrogram on Figure 3 where kinases inhibited by a minimum of 80% are shown. A full list of the kinases tested is shown on Table S1 in supplementary information.

STK32B (YANK2) = STK32B (YANK2) (Homo sapiens, UniProt Q9NY57)
Chain of STK32B (YANK2) (Q9NY57 whole entry): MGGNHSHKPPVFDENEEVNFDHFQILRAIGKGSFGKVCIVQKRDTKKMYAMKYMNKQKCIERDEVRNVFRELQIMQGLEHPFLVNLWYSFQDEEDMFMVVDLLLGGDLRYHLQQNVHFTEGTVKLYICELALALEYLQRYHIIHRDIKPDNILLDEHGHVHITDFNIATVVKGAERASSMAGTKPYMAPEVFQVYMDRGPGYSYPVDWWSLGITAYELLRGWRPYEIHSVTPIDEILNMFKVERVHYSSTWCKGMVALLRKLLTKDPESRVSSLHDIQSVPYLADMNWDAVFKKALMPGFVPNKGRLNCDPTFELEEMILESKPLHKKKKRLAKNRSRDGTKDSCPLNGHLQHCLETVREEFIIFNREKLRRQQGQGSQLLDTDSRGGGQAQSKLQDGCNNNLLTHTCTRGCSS
Description: as §1

MAP3K11 (MLK3) = molecular target: T2, MAP3K11 (MLK3) (Homo sapiens, UniProt Q16584)
T2 construct: purchased Life Technologies
T2 sequence (Q16584 whole entry): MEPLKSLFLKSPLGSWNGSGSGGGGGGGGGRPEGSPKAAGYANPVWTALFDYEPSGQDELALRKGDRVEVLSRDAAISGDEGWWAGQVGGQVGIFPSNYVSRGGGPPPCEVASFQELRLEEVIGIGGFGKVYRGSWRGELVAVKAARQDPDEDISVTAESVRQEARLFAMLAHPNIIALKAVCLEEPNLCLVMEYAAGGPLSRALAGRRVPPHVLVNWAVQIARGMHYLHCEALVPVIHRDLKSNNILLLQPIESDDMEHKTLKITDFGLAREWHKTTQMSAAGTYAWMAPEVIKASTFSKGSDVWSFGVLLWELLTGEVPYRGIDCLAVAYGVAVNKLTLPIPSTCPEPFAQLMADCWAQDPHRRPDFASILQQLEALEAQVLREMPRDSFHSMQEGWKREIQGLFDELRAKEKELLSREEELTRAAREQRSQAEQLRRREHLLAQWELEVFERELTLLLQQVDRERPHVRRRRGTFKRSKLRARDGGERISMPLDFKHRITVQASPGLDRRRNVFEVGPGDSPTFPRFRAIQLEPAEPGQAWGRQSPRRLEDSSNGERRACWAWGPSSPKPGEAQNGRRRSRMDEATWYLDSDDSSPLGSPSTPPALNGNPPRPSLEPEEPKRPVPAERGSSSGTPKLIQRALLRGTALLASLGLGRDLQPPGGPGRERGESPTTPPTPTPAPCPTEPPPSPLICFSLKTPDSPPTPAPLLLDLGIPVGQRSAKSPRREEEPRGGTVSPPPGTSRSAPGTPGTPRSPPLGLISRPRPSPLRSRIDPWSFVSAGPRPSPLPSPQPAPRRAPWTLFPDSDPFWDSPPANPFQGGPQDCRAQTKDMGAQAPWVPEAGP
Description: as §1

FGFR1 V561M = FGFR1 V561M (Homo sapiens, UniProt P11362, V561M)
Description: as §1

TAOK3 (JIK) = molecular target: T3, TAOK3 (JIK) (Homo sapiens, UniProt Q9H2K8)
T3 construct: purchased Life Technologies (SelectScreen service)
Description: as §1

PKN2 (PRK2) = molecular target: T4, PKN2 (PRK2) (Homo sapiens, UniProt Q16513)
T4 construct: purchased Life Technologies
Description: as §1

FYN A = molecular target: T5, FYN A (Homo sapiens, UniProt P06241)
T5 construct: purchased Life Technologies (SelectScreen Whole Panel service)
T5 sequence (P06241 whole entry): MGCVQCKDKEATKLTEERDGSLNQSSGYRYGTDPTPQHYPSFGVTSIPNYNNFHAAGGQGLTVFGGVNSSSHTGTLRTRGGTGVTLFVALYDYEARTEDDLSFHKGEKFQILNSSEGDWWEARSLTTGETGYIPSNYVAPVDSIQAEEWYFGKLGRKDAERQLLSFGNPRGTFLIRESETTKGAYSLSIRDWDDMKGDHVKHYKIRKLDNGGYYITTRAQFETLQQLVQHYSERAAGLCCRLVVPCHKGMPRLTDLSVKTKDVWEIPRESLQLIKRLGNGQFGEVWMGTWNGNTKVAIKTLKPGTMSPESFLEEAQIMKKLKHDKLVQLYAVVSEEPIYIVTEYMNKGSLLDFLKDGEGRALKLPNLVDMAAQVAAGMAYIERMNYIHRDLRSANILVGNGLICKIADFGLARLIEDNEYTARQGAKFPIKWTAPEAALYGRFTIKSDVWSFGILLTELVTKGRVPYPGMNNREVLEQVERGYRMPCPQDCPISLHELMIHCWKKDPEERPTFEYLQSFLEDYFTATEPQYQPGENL
Description: as §1

EPHA7 = molecular target: T6, EPHA7 (Homo sapiens, UniProt Q15375)
T6 construct: purchased Life Technologies (SelectScreen service)
Description: as §1

CDK9 (Inactive) = CDK9 (Inactive) (Homo sapiens, UniProt P50750)
Description: as §1

PRKACB (PRKAC beta) = molecular target: T7, PRKACB (PRKAC beta) (Homo sapiens, UniProt P22694)
T7 construct: purchased Life Technologies
Description: as §1

CDK2/cyclin E1 = CDK2/cyclin E1 (Homo sapiens, UniProt P24941)
Description: as §1

MAP2K5 (MEK5) = molecular target: T8, MAP2K5 (MEK5) (Homo sapiens, UniProt Q13163)
T8 construct: purchased Life Technologies (SelectScreen service)
Description: as §1

RAF1 (cRAF) Y340D Y341D = molecular target: T9, RAF1 (cRAF) Y340D Y341D (Homo sapiens, UniProt P04049, Y340D/Y341D)
T9 construct: purchased Life Technologies
Description: as §1

MLCK (MLCK2) = MLCK (MLCK2) (Homo sapiens, UniProt Q32MK0)
Description: as §1

LIMK2 = molecular target: T10, LIMK2 (Homo sapiens, UniProt P53671)
T10 construct: purchased Life Technologies (SelectScreen Whole Panel service)
Description: as §1

TEK (TIE2) R849W = molecular target: T11, TEK (TIE2) R849W (Homo sapiens, UniProt Q02763, R849W)
T11 construct: purchased Life Technologies (SelectScreen Whole Panel service)
Description: as §1

TNK2 (ACK) = TNK2 (ACK) (Homo sapiens, UniProt Q07912)
Chain of TNK2 (ACK) (Q07912 whole entry): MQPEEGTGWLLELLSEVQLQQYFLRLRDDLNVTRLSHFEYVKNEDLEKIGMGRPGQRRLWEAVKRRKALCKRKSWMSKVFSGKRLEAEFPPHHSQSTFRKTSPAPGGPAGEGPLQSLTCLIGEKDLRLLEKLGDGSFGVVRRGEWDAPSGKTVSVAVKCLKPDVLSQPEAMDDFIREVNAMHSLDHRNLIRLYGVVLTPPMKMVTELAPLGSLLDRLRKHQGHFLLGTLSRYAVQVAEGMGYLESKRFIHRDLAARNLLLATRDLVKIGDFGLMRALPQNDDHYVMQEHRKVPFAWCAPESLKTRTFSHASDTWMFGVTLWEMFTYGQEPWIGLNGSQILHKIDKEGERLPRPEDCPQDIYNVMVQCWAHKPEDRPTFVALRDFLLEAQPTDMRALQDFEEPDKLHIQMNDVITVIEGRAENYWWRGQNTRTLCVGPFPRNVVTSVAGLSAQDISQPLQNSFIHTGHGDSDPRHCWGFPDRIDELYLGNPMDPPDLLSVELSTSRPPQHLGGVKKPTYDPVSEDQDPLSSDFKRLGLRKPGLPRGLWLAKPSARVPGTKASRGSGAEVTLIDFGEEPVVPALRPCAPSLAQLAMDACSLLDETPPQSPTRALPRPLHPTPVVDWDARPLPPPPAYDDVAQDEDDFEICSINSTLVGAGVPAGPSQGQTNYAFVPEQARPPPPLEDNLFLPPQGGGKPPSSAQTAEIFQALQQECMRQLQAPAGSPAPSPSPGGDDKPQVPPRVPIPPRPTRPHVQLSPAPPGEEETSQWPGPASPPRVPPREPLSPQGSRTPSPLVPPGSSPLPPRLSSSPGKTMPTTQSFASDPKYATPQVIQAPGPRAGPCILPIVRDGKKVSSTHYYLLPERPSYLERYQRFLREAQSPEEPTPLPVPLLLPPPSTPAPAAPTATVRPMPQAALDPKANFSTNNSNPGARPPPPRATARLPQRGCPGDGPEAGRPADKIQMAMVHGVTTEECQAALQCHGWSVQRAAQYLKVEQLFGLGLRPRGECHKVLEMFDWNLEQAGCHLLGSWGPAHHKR
Description: as §1

BRAF V599E = molecular target: T12, BRAF V599E (Homo sapiens, UniProt P15056, V600E)
T12 construct: purchased Life Technologies
Description: as §1

DYRK2 = molecular target: T13, DYRK2 (Homo sapiens, UniProt Q92630)
T13 construct: purchased Life Technologies
T13 sequence (Q92630 whole entry): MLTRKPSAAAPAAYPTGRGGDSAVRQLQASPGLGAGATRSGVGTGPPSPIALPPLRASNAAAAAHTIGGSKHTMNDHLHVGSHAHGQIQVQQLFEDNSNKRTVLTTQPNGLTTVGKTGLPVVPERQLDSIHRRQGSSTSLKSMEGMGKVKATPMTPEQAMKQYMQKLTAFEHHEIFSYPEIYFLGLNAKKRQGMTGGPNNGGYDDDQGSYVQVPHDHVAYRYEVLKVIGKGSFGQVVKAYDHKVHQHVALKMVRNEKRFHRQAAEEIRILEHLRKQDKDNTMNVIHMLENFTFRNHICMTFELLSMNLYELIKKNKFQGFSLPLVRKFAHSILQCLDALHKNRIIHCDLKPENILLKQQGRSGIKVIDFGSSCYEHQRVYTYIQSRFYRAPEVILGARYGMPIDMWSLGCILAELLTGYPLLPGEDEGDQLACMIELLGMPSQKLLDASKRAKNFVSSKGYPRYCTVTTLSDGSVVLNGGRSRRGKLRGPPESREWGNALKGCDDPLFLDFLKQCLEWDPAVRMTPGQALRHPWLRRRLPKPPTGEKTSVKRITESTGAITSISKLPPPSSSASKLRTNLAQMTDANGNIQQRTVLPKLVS
Description: as §1

PRKACG (PRKAC gamma) = molecular target: T14, PRKACG (PRKAC gamma) (Homo sapiens, UniProt P22612)
T14 construct: purchased Life Technologies (SelectScreen Whole Panel service)
Description: as §1

ACVR1 (ALK2) R206H = ACVR1 (ALK2) R206H (Homo sapiens, UniProt Q04771, R206H)
Description: as §1

MAP3K3 (MEKK3) = molecular target: T15, MAP3K3 (MEKK3) (Homo sapiens, UniProt Q99759)
T15 construct: purchased Life Technologies (SelectScreen service)
T15 sequence (Q99759 whole entry): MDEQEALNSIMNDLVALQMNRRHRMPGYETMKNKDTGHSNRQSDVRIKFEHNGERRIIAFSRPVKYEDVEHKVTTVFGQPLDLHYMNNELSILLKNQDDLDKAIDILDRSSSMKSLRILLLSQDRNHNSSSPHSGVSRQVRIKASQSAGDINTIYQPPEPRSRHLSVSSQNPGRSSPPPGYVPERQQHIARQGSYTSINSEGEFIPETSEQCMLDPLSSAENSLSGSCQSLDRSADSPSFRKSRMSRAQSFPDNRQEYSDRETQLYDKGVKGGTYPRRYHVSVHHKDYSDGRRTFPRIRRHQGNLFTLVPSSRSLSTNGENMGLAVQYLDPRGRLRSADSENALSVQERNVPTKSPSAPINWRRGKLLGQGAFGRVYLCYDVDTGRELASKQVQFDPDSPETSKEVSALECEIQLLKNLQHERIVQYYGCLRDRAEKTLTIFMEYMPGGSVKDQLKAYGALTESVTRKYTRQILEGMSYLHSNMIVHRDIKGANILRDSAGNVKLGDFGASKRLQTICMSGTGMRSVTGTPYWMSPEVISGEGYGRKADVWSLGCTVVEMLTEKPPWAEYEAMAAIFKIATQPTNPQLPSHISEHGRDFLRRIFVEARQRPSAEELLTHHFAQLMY
Description: as §1

NEK8 = molecular target: T16, NEK8 (Homo sapiens, UniProt Q86SG6)
T16 construct: purchased Life Technologies (SelectScreen Whole Panel service)
Description: as §1

MET D1228H = MET D1228H (Homo sapiens, UniProt P08581, D1228H)
Description: as §1

FGFR3 G697C = molecular target: T17, FGFR3 G697C (Homo sapiens, UniProt P22607, G697C)
T17 construct: purchased Life Technologies
Description: as §1

TLK2 = molecular target: T18, TLK2 (Homo sapiens, UniProt Q86UE8)
T18 construct: purchased Life Technologies (SelectScreen service)
Description: as §1

MLK4 = molecular target: T19, MLK4 (Homo sapiens, UniProt Q5TCX8)
T19 construct: purchased Life Technologies (SelectScreen Whole Panel service)
Description: as §1

RET G691S = molecular target: T20, RET G691S (Homo sapiens, UniProt P07949, G691S)
T20 construct: purchased Life Technologies (SelectScreen service)
Description: as §1

ULK1 = molecular target: T21, ULK1 (Homo sapiens, UniProt O75385)
T21 construct: purchased Life Technologies
Description: as §1

CDK2/cyclin O = CDK2/cyclin O (Homo sapiens, UniProt P24941)
Description: as §1

ABL1 M351T = ABL1 M351T (Homo sapiens, UniProt P00519, M351T)
Description: as §1

DDR1 = molecular target: T22, DDR1 (Homo sapiens, UniProt Q08345)
T22 construct: purchased Life Technologies
Description: as §1

DDR2 N456S = molecular target: T23, DDR2 N456S (Homo sapiens, UniProt Q16832, N456S)
T23 construct: purchased Life Technologies
Description: as §1

CDK13/cyclin K = molecular target: T24, CDK13/cyclin K (Homo sapiens, UniProt Q14004)
T24 construct: purchased Life Technologies (SelectScreen Whole Panel service)
Description: as §1

ADCK3 = ADCK3 (Homo sapiens, UniProt Q8NI60)
Description: as §1

BMPR1B (ALK6) = molecular target: T25, BMPR1B (ALK6) (Homo sapiens, UniProt O00238)
T25 construct: purchased Life Technologies (SelectScreen)
T25 sequence (O00238 14-502): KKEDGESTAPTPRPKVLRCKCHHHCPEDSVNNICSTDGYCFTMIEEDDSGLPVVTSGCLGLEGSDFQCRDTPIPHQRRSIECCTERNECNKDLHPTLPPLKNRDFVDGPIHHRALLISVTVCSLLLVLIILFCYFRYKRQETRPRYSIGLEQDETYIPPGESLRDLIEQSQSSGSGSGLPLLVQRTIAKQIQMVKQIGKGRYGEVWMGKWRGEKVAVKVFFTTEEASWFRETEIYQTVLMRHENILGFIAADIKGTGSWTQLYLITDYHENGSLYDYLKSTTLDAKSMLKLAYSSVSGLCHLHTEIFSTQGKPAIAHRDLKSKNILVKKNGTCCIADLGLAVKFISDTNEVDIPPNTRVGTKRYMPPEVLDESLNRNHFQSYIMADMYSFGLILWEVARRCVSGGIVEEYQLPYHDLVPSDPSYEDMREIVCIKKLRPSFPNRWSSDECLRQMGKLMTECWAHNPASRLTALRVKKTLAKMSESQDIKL
Description: as §1

ALK C1156Y = molecular target: T26, ALK C1156Y (Homo sapiens, UniProt Q9UM73, C1156Y)
T26 construct: purchased Life Technologies
Description: as §1

MAP2K4 (MEK4) = molecular target: T27, MAP2K4 (MEK4) (Homo sapiens, UniProt P45985)
T27 construct: purchased Life Technologies (SelectScreen service)
T27 sequence (P45985 whole entry): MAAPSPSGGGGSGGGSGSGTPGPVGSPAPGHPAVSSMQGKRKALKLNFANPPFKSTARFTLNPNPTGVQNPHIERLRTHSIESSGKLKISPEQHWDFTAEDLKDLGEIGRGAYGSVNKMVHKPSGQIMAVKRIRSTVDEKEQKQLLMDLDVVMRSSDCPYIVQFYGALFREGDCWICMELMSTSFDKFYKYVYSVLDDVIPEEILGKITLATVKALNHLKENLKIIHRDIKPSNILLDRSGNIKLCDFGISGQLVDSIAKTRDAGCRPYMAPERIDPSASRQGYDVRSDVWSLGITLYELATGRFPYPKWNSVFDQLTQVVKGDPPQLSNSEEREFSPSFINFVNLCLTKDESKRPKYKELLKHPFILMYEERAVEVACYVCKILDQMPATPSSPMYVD
Description: as §1

CAMK2G (CaMKII gamma) = molecular target: T28, CAMK2G (CaMKII gamma) (Homo sapiens, UniProt Q13555)
T28 construct: purchased Life Technologies
Description: as §1

Compound `COc1ccc2[nH]c3c(=O)[nH]c4ccc(O)cc4c3c2c1` [Compound 55, 2-Hydroxy-10-methoxy-5,7-dihydro-6H-indolo[2,3-c]quinolin-6-one] has an inhibition at 1 µM (TTK) of 42%, an inhibition at 1 µM (STK32B (YANK2)) of 7% and an inhibition at 1 µM (MAP3K11 (MLK3)) of 36%. The inhibition at 1 µM (FGFR1 V561M) was 60%, the inhibition at 1 µM (TAOK3 (JIK)) was 24% and the inhibition at 1 µM (PKN2 (PRK2)) was 32%. The inhibition at 1 µM (FYN A) was 45%, the inhibition at 1 µM (EPHA7) was 23% and the inhibition at 1 µM (CDK9 (Inactive)) was 59%. It also gave an inhibition at 1 µM (PRKACB (PRKAC beta)) of 35%, an inhibition at 1 µM (CDK2/cyclin E1) of 64% and an inhibition at 1 µM (MAP2K5 (MEK5)) of 80%. The inhibition at 1 µM (RAF1 (cRAF) Y340D Y341D) was 4%, the inhibition at 1 µM (MLCK (MLCK2)) was 62% and the inhibition at 1 µM (LIMK2) was 11%. The inhibition at 1 µM (TEK (TIE2) R849W) was 11%, the inhibition at 1 µM (TNK2 (ACK)) was 15% and the inhibition at 1 µM (BRAF V599E) was 6%. It also gave an inhibition at 1 µM (DYRK2) of 97%, an inhibition at 1 µM (PRKACG (PRKAC gamma)) of 17% and an inhibition at 1 µM (ACVR1 (ALK2) R206H) of 14%. The inhibition at 1 µM (MAP3K3 (MEKK3)) was 71%, the inhibition at 1 µM (NEK8) was 16% and the inhibition at 1 µM (MET D1228H) was 14%. The inhibition at 1 µM (FGFR3 G697C) was 35%, the inhibition at 1 µM (TLK2) was 88% and the inhibition at 1 µM (MLK4) was 18%. The inhibition at 1 µM (RET G691S) was 91%, the inhibition at 1 µM (ULK1) was 31% and the inhibition at 1 µM (CDK2/cyclin O) was 61%. For the same compound, the inhibition at 1 µM (ABL1 M351T) was 60%, the inhibition at 1 µM (DDR1) was 5% and the inhibition at 1 µM (DDR2 N456S) was 41%. The inhibition at 1 µM (CDK13/cyclin K) was 17%, the inhibition at 1 µM (ADCK3) was 60% and the inhibition at 1 µM (BMPR1B (ALK6)) was 8%. It also gave an inhibition at 1 µM (ALK C1156Y) of 34%, an inhibition at 1 µM (MAP2K4 (MEK4)) of 26% and an inhibition at 1 µM (CAMK2G (CaMKII gamma)) of 30%.
